The values below come from article PMC11013284, “Chemoselective Synthesis and Anti-Kinetoplastidal Properties of 2,6-Diaryl-4H-tetrahydro-thiopyran-4-one S-Oxides: Their Interplay in a Cascade of Redox Reactions from Diarylideneacetones” (Molecules, 2024).

“Also recorded” adds a separate entry of the source. Read-outs that look alike come from different tables or passages of the source.

The nature of series [1]: Solubility observations (crystals in assay, insolubility in solvents). Particulars: for presence of crystals, concentration range / presence of crystals (asterisk mark): noted in L. donovani assay, Table S5. The series is classed as physicochemical.
The subject of series [2] is WT LV9 L. donovani intramacrophage amastigotes. The experiment in a line: L. donovani intramacrophage amastigote assay. The series is classed as cell-based, Leishmania donovani. Particulars: WT LV9, ± SD in Tables S5/S6, read-out: IC50 L. donovani intramacrophage amastigotes.
Series [3] relates to human diploid embryonic lung fibroblast hMRC-5SV2 cells. The experiment in a line: in vitro. As to the method:
(§1) The cytotoxicity of compounds was evaluated toward human diploid embryonic lung fibroblast hMRC-5SV2 cells, derived from fetal lung tissue and first described in 1970. hMRC-5SV2 cells were cultured in 96-well plates with five concentrations of the compound (64, 16, 4, 1, and 0.25 μM). After 3 days of incubation, the cell viability was assessed fluorimetrically after the addition of resazurin, and fluorescence was measured (λex = 550 nm, λem = 590 nm). The results were expressed as a percentage reduction in cell growth/viability compared to control wells, and a 50% cytotoxic concentration (CC50) was calculated. The reference cytotoxic drugs were tamoxifen or ivermectin. Additionally, toxicity toward mouse macrophages was qualitatively observed. Three concentrations were included (64, 16, and 4 µM), and the range of toxicity was ranked from the least toxic to the most toxic compound.

Series [4] has as its system Trypanosoma cruzi (Tulahuen CL2 β-galactosidase) amastigotes in hMRC-5SV2 cells. Nature of the series: T. cruzi intracellular amastigote assay (β-galactosidase/CPRG). The series is classed as cell-based. Particulars: intracellular amastigotes, 7 days, read-out: IC50 T. cruzi intramacrophage amastigotes (converted). As to the method: A nifurtimox-sensitive strain (Tulahuen CL2 β-galactosidase) in human lung fibroblast hMRC-5SV2 cells was incubated for 7 days in 96-well plates with five concentrations of compound (64, 16, 4, 1, and 0.25 μM). The parasitic burden was evaluated through the activity of the enzyme β-galactosidase on a specific chlorophenol red ß-D-galactopyranoside (CPRG) substrate. Live parasites converted the yellow-orange CPRG substrate into the red chromophore chlorophenol red, yielding a dark-red solution, which could be quantitatively measured at 540 nm after 4 h of incubation at 37 °C. The results were expressed as a percentage reduction in parasite growth/viability compared to control wells, and an IC50 was calculated.

The subject of series [5] is L. infantum (MHOM/MA(BE)/67) amastigotes in primary peritoneal mouse macrophages. The experiment in a line: L. infantum intramacrophage amastigote assay (microscopic burden). Particulars: 5 days, mouse macrophages as host. The series is classed as cell-based, Leishmania infantum. As to the method:
L. infantum (MHOM/MA(BE)/67 strain) amastigote were incubated for 5 days in 96-well plates with five concentrations of compound (64, 16, 4, 1, and 0.25 μM). Primary peritoneal mouse macrophages were used as host cells. Parasite burdens (i.e., the number of amastigotes per macrophage) were microscopically assessed. The results were expressed as a percentage reduction in parasite burden compared to untreated control wells, and an IC50 was calculated.

The subject of series [6] is Trypanosoma brucei brucei trypomastigotes, suramin-sensitive strain (Squib 427). The experiment in a line: T. b. brucei growth/viability assay (resazurin). The series is classed as cell-based. Particulars: for IC50: 3 days; for anti-trypanosomal activity (IC50): Trypanosoma (T. cruzi and T. b. brucei). As to the method: After 3 days, parasite growth was assessed fluorimetrically following the addition of resazurin. After 24 h at 37 °C, fluorescence was measured (λex = 550 nm, λem = 590 nm). The results were expressed as a percentage reduction in parasite growth/viability compared to control wells, and a 50% inhibitory concentration (IC50) was calculated.

A further series in a line: in vitro. Particulars: human, CC50 hMRC-5 (cytotoxicity). As to the method: as §1
The test system of the next series is murine macrophages. Nature of the series: Qualitative toxicity toward mouse macrophages. Particulars: concentration at which toxicity was observed; 64, 16 and 4 µM tested. As to the method: as §1
The mark [7] stands for this setting: bracketed value after the intramacrophage IC50 (Table S5), Table S6.
The mark [8] stands for this setting: Trypanosoma cruzi, TULAHUEN, 168 h.
[9] abbreviates: Leishmania infantum, Macrophage, 120 h.

Regarding `O=C1CC(c2ccccc2)SC(c2ccccc2)C1` (racemic) [2a], the “observed macrophage death / lysis observed at” value in the series with macrophages (setting [7]) came out at 200 µM. Further, in series [1], the “presence of crystals, concentration range” value fell in the range of 6.25 to 200 µM. The IC50 in [2] was above 100 µM.

In turn, `CN(C)c1ccc(/C=C/C(=O)/C=C/c2nccs2)cc1` [1’s] displayed a CC50 in series [3] above 64 µM. The half-inhibitory concentration (IC50) in series [4] is 11 µM; in series [5], 38 µM; in series [6] it was 0.4 µM; in series [2], 11.5 ± 0.6 µM. For the same compound, the “observed macrophage death / lysis observed at” value in the series with macrophages (setting [7]) is above 37.5 µM. For the same compound, the “presence of crystals (asterisk mark)” value in series [1] is “* (presence of crystals at > 50 µM)”.

In “in vitro”, `O=C1CC(c2ccccn2)S(=O)(=O)C(c2ccccn2)C1` (racemic) [4w, (±)-trans-2,6-Di-(pyridin-2-yl)-4H-tetrahydrothiopyran-4-one 1,1-dioxide] came in with a CC50 at 3 days of 7.9 µM. Moreover, the 50% inhibitory concentration (IC50) was 0.4 µM in series [4] (setting [8]), 2 µM in [5] (setting [9]), 0.5 µM in series [6] and 5 µM in series [2]. Also, the “IC50 L. infantum intramacrophage amastigotes” value in [5] is on record as “excellent potency”. The “anti-trypanosomal activity (IC50)” value in series [6] was “high nanomolar range”. For the same compound, the “Toxicity (T) observed toward murine macrophages” value (“Toxicity” below) with murine macrophages is given as “T3 (T3 = 4)”.

For `COc1ccc(/C=C/C(=O)/C=C/c2ccccc2)cc1` [1’h], the “observed macrophage death / lysis observed at” value in the series with macrophages (setting [7]) is given as above 37.5 µM. In series [1], the “presence of crystals (asterisk mark)” value is listed as “** (presence of crystals at > 100 µM)”. The IC50 in series [2] turned out to be 17.4 ± 1.9 µM.

Turning to `COc1ccc(/C=C/C(=O)/C=C/c2ccc(OC)c(OC)c2)cc1OC` [1j], half-maximal cytotoxicity in the series “in vitro” (CC50 at 3 days) was put at 6.9 µM. Moreover, the IC50 was 2.1 µM in series [4] (setting [8]); 30 µM in series [5] (setting [9]); 2.1 µM in series [6] (Trypanosoma brucei, 72 h). In addition, the “Toxicity” value in the series with murine macrophages is “T1 (T1 = 64)”.

In series [3], `O=C1CC(c2c(Cl)cccc2Cl)SC(c2c(Cl)cccc2Cl)C1` (racemic) [2h] showed a CC50 above 64 µM. Further, the values for the IC50 in series [4], in series [5] and in series [6] were above 64 µM, 2 µM and above 64 µM, respectively. In addition, the “presence of crystals, concentration range” value in series [1] lay within 12.5 to 200 µM.

In series [3], `Cc1ccccc1C1CC(=O)CC(c2ccccc2C)S1` (racemic) [2b] yielded a half-maximal cytotoxic concentration (CC50) above 64 µM. Also, the IC50 in series [4] was at least 64 µM; in series [5], 43.1 µM; in series [6], above 64 µM; in series [2], 14.5 ± 1.9 µM. Moreover, the “observed macrophage death / lysis observed at” value in the series with macrophages (setting [7]) was above 50 µM. For the same compound, the “presence of crystals (asterisk mark)” value in series [1] is “** (presence of crystals at > 100 µM)”.

Consider `O=C1CC(c2ccccn2)[S+]([O-])C(c2ccccn2)C1` (stereo not drawn) [3w, (±)-trans-2,6-Di-(pyridin-2-yl)-4H-tetrahydrothiopyran-4-one 1-oxide], for which, in “in vitro”, the CC50 at 3 days was found to be 8 µM. In addition, the IC50 in series [4] (setting [8]) was 0.8 µM; in series [5] (setting [9]) it was 2 µM; in series [6] (Trypanosoma brucei, 72 h) it was 0.1 µM; in [2] (Leishmania donovani), 25 µM. For the same compound, the “Toxicity” value with murine macrophages was “T3 (T3 = 4)”.

Regarding `O=C(/C=C/c1ccco1)/C=C/c1ccco1` [1z], the CC50 at 3 days in “in vitro” was above 64 µM. Also, the IC50 is 39.9 µM in series [4] (setting [8]); 32.5 µM in [5] (setting [9]); 7.6 µM in [6] (Trypanosoma brucei, 72 h); 14 ± 2.6 µM in [2] (Leishmania donovani). The “observed macrophage death / lysis observed at” value with macrophages is above 50 µM. The “Toxicity” value in the series with murine macrophages is listed as “T1 (T1 = 64)”.

On to `O=C1CC(c2ccccn2)[S+]([O-])C(c2ccccn2)C1` (mixture of isomers) [3′w, (syn/anti)-cis-2,6-Di-(pyridin-2-yl)-4H-tetra-hydrothiopyran-4-one 1-oxide, as diastereoisomeric mixture], for which the CC50 at 3 days in “in vitro” was 8.1 µM. In addition, the IC50 in series [4] (setting [8]) was 0.5 µM; in [5] (setting [9]), 2 µM; in series [6] (Trypanosoma brucei, 72 h), 0.1 µM; in [2] (Leishmania donovani) it was 2.5 µM. Further, the “Toxicity” value in the series with murine macrophages is given as “T3 (T3 = 4)”.

Consider `COc1cc(Br)c(OC)c(/C=C/C(=O)/C=C/c2cc(OC)cc(Br)c2OC)c1` [1q], for which the CC50 at 3 days in the series “in vitro” came to 0.8 µM. For the same compound, the IC50 in series [4] (setting [8]) was 0.9 µM; in series [5] (setting [9]), 10.4 µM; in series [6] (Trypanosoma brucei, 72 h), 0.9 µM. In the series on murine macrophages, the “Toxicity” value is recorded as “T1 (T1 = 64)”.

In the case of `COc1ccc(C2CC(=O)CC(c3ccc(OC)cc3)S2(=O)=O)cc1` (racemic) [4d, (±)-trans-2,6-Di-(p-anisyl)-4H-tetrahydrothiopyran-4-one 1,1-dioxide], in “in vitro”, the CC50 at 3 days is at least 64 µM. The IC50 in series [4] (setting [8]) was at least 64 µM; in series [5], at least 64 µM; in [6], 43.3 µM; in series [2] (Leishmania donovani), above 100 µM. Further, the “anti-trypanosomal activity (IC50)” value in [6] is “almost inactive; also recorded: completely inactive”. Further, the “solubility (observation)” value in series [1] (almost all types of solvent, even at very low concentrations) was “Solubility issues; also recorded: insolubility”.

As for `COc1ccc(/C=C/C(=O)/C=C/c2ccc3ccccc3c2)cc1` [1’j], the “observed macrophage death / lysis observed at” value in the series with macrophages (setting [7]) is recorded as above 150 µM. Also, in [1], the “presence of crystals (asterisk mark)” value is given as “** (presence of crystals at > 100 µM)”. Moreover, the IC50 in [2] came to 58.2 ± 8 µM.

`Cc1ccc(C2CC(=O)CC(c3ccc(C)cc3)S2)cc1` (racemic) [2c] displayed a CC50 in series [3] of 24.2 µM. Also, the IC50 in [4] was 3.7 µM; in [5], above 64 µM; in series [6], 0.8 µM; in [2] it was 13.5 ± 2.8 µM. In the series with macrophages (setting [7]), the “observed macrophage death / lysis observed at” value is recorded as 200 µM. Further, the “presence of crystals (asterisk mark)” value in series [1] was “** (presence of crystals at > 100 µM)”.

Regarding `Cc1ccc(/C=C/C(=O)/C=C/c2ccc(C)o2)o1` [1za], in the series “in vitro”, the CC50 at 3 days turned out to be 5.4 µM. Also, the IC50 in series [4] (setting [8]) was 2.2 µM; in series [5] (setting [9]), 8.1 µM; in series [6] (Trypanosoma brucei, 72 h), 8.2 µM. In addition, in the series with murine macrophages, the “Toxicity” value is given as “T2 (T2 = 16)”.

In “in vitro”, `COc1ccc(OC)c(/C=C/C(=O)/C=C/c2cc(OC)ccc2OC)c1` [1m] registered a CC50 at 3 days of 1 µM. For the same compound, the IC50 in series [4] (setting [8]) is 1.1 µM; in series [5] (setting [9]), 10.4 µM; in series [6] (Trypanosoma brucei, 72 h) it was 0.8 µM. In addition, the “Toxicity” value with murine macrophages was “T1 (T1 = 64)”.

Turning to `O=C(/C=C/c1ccccn1)/C=C/c1ccccn1` [1w], it took 1.9 µM to reach half-maximal cytotoxicity in the series “in vitro” (CC50 at 3 days). Moreover, the IC50 in series [4] (setting [8]) is 0.3 µM; in series [5] (setting [9]), 0.4 µM; in series [6] (Trypanosoma brucei, 72 h), 0.03 µM. For the same compound, the “Toxicity” value with murine macrophages was “T3 (T3 = 4)”.

Regarding `O=C1CC(c2ccc(Cl)cc2)SC(c2ccc(Cl)cc2)C1` (racemic) [2f], the CC50 in [3] was above 64 µM. In addition, the IC50 in series [4] is above 64 µM; in series [5], 33.2 µM; in series [6] it was 27.4 µM; in series [2], 16.1 ± 1.4 µM. In addition, the “observed macrophage death / lysis observed at” value with macrophages (setting [7]) is above 75 µM. In series [1], the “presence of crystals (asterisk mark)” value is recorded as “* (presence of crystals at > 50 µM)”.

The compound `Cc1ccc(/C=C/C(=O)/C=C/c2ccc(C)cc2)cc1` [1c] gave a CC50 at 3 days in “in vitro” of 32.5 µM. The IC50 in series [4] (setting [8]) was 41.9 µM; in [5] (setting [9]), above 64 µM; in series [6] (Trypanosoma brucei, 72 h), 9.3 µM. In series [1], the “presence of crystals, concentration range” value was 25 to 100 µM.

For the compound `Cc1ccc(/C=C/C(=O)/C=C/c2ccccc2)cc1` [1’a], the CC50 in series [3] turned out to be 47 µM. Further, the IC50 is 2.6 µM in [4], 32.5 µM in series [5] and 0.5 µM in [6]. The “presence of crystals, concentration range” value in series [1] was in the range of 3.1 to 200 µM.
